Experimental data: patent US12264134B2 (Merck Sharp & Dohme LLC, priority 2018, dated 2025)

target: IDO1 (Homo sapiens, UniProt P14902); assay: IDO1 Cellular Assay in HeLa Cells Stimulated with IFNγ; assay type: cell-based; settings: HeLa Cell Potency, IC50 (nM)
Method: IDO1 Cellular Assay in HeLa Cells Stimulated with IFNγ
HeLa cells were cultured in complete HeLa culture medium (90% EMEM, 10% heat-inactivated fetal bovine serum) and expanded to about 1×10^9 cells. The cells were then collected and frozen down at 1×10^7 cells/vial in 1 mL frozen medium (90% complete HeLa culture medium, 10% DMSO).
Compounds to be tested were serially diluted in ten 3-fold steps in DMSO starting from 10 mM DMSO stocks in Echo low volume plate(s). Compound dilutions or DMSO alone were then dispensed from the dilution plate(s) into Greiner black 384-well assay plate(s) (catalog #781086, 50 nL/well) using an Echo 550 acoustic liquid handler (Labcyte).
Frozen HeLa cells were thawed and transferred into HeLa assay medium (99% complete HeLa culture medium, 1% Pen/Strep) with 20 mL medium/vial of cells. The cells were spun down at 250 g in a table top centrifuge for 5 min and suspended in same volume of HeLa assay medium. The cells were then counted and adjusted to a density of 2×10^5 cells/mL in HeLa assay medium. Sterile L-tryptophan were added to the cells with final concentration of 300 uM L-tryptophan. A small aliquot (2 mL/plate) of HeLa cells were set aside and were not treated with IFNγ, to serve as the Max-E control.
HeLa cells with and without IFNγ were dispensed to the respective wells of 384-well assay plates containing the compounds. The plates were incubated for about 48 hours at a 37° C., 5% CO2 incubator. Afterwards, 12 μL of 0.5 M methyl isonipecotate in dimethyl sulfoxide were added into each well and the plates were sealed and incubated at 37° C. without CO2 overnight. The plates were centrifuged for 1 min at 200×g. The resulting fluorescence was measured in a Spectramax plate reader (Molecular Devices) with a 400 nm excitation filter and a 510 nm emission filter.
The fluorescence intensity of each well was corrected for the background observed in wells with non-IFNγ-treated cells and was expressed as a fraction of the intensity observed in wells of IFNγ-treated cells and DMSO only. Potencies were calculated by linear least squares fit to the four parameter logistic IC50 equation.

Sequence of IDO1 (P14902 whole entry): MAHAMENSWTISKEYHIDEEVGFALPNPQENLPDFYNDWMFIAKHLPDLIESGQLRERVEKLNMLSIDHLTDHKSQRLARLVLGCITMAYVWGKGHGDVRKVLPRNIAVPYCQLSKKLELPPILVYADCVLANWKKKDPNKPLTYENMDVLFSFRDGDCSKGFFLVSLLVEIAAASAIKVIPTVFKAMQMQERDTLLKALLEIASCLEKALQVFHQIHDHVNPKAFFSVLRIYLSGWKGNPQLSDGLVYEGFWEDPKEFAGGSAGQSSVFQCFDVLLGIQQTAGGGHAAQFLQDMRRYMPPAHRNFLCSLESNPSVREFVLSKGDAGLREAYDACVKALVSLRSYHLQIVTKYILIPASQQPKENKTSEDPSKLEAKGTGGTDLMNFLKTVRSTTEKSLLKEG

For `Cc1cccc(N2CCN(C(=O)Cn3nc(C(=O)N4CCC(=O)CC4)c4c3C[C@H]3C[C@@H]43)CC2)c1C` [Example 265, 1-[(3bR,4aR)-1-{2-[4-(2,3-dimethylphenyl)piperazin-1-yl]-2-oxoethyl}-3b,4,4a,5-tetrahydro-1H-cyclopropa[3,4]cyclopenta[1,2-c]pyrazole-3-carbonyl]piperidin-4-one], the IC50 was under 0.51 nM.

same assay, conditions: read-out: HeLa Cell Potency, IC50

Going from `COC(=O)N1CCN(C(=O)c2nn(CC(=O)N3CCN(c4cccc(C)c4C)CC3)c3c2CCC3)CC1` [Example 86, methyl 4-(1-{2-[4-(2,3-dimethylphenyl)piperazin-1-yl]-2-oxoethyl]-1,4,5,6-tetrahydrocyclopenta[c]pyrazole-3-carbonyl)piperazine-1-carboxylate] to `Cc1cccc(N2CCN(C(=O)Cn3nc(C(=O)N4CC[C@@H](F)[C@@H](O)C4)c4c3CCC4)CC2)c1C` [Example 204, 1-[4-(2,3-dimethylphenyl)piperazin-1-yl]-2-[3-[(3S,4R)-4-fluoro-3-hydroxy-piperidine-1-carbonyl]-5,6-dihydro-4H-cyclopenta[c]pyrazol-1-yl]ethanone], the IC50 rises from 4.12 nM to 13.1 nM (3.2-fold). The first is the more potent here.

First: Cc1cccc(N2CCN(C(=O)Cn3nc(C(=O)N4C[C@H]5CC[C@H](O)[C@H]5C4)c4c3CCC4)CC2)c1C [Example 100, 1-[4-(2,3-dimethylphenyl)piperazin-1-yl]-2-{3-[(3aR,4S,6aS)-4-hydroxyhexahydrocyclopenta[c]pyrrole-2(1H)-carbonyl]-5,6-dihydrocyclopenta[c]pyrazol-1(4H)-yl}ethan-1-one]
Second: Cc1cccc(N2CCN(C(=O)Cn3nc(C(=O)N4CCC(O)C5CCCCC54)c4c3CCC4)CC2)c1C (stereo not drawn) [Example 112, 1-[4-(2,3-dimethylphenyl)piperazin-1-yl]-2-[3-(4-hydroxyoctahydroquinoline-1(2H)-carbonyl)-5,6-dihydrocyclopenta[c]pyrazol-1(4H)-yl]ethan-1-one]
The IC50 of the first is 3-fold higher: 10.7 nM for the first, 3.6 nM for the second. The second is the more potent here.

Compared with `Cc1cccc(N2CCN(C(=O)Cn3nc(C(=O)N4CC[C@H](O)[C@H](F)C4)c4c3C(F)(F)CCC4)CC2)c1C` [Example 20, 2-(7,7-Difluoro-3-((3R,4S)-3-fluoro-4-hydroxypiperidine-1-carbonyl)-4,5,6,7-tetrahydro-1H-indazol-1-yl)-1-(4-(2,3-dimethylphenyl)piperazin-1-yl)ethanone], `Cc1cccc(N2CCN(C(=O)Cn3nc(C(=O)N4CC[C@H](O)[C@@H](F)C4)c4c3CCCCC4)CC2)c1C` [Example 413, 1-(4-(2,3-dimethylphenyl)piperazin-1-yl)-2-(3-((3S,4S)-3-fluoro-4-hydroxypiperidine-1-carbonyl)-5,6,7,8-tetrahydrocyclohepta[c]pyrazol-1(4H)-yl)ethanone] is 41-fold lower in IC50: 381 nM for the first, 9.29 nM for the second.

Going from `Cc1cccc(N2CCN(C(=O)Cn3nc(C(=O)N4CC[C@H](O)[C@@H](F)C4)c4c3C(O)CC4)CC2)c1C` (stereo partly drawn) [Example 420, 1-(4-(2,3-dimethylphenyl)piperazin-1-yl)-2-(3-((3 S,4 S)-3-fluoro-4-hydroxypiperidine-1-carbonyl)-6-hydroxy-5,6-dihydrocyclopenta[c]pyrazol-1(4H)-yl)ethan-1-one] to `Cc1cccc(N2CCN(C(=O)Cn3nc(C(=O)N4CC[C@H](N)C(F)(F)C4)c4c3CCC4)CC2)c1C` (single isomer, unassigned) [Example 209, [(4S or 4R)-1-[1-[2-[4-(2,3-dimethylphenyl)piperazin-1-yl]-2-oxo-ethyl]-5,6-dihydro-4H-cyclopenta[c]pyrazole-3-carbonyl]-3,3-difluoro-4-piperidyl]ammonium;2,2,2-trifluoroactate], the IC50 falls from 87.4 nM to 36.8 nM (2.4-fold). The second is the more potent here.

Compared with `C[C@@H]1CN(C(=O)c2nn(CC(=O)N3CCN(c4cccc(F)c4Cl)CC3)c3c2CCC3)C[C@H](C)O1` [Example 32, 1-[4-(2-chloro-3-fluorophenyl)piperazin-1-yl]-2-{3-[(2R,6S)-2,6-dimethylmorpholine-4-carbonyl]-5,6-dihydrocyclopenta[c]pyrazol-1(4H)-yl}ethan-1-one], `C[C@@H]1CN(C(=O)c2nn(CC(=O)N3CCN(c4ccccc4Cl)CC3)c3c2CCC3)C[C@H](C)O1` [Example 55, 1-[4-(2-chlorophenyl)piperazin-1-yl]-2-{3-[(2R,6S)-2,6-dimethylmorpholine-4-carbonyl]-5,6-dihydrocyclopenta[c]pyrazol-1(4H)-yl}ethan-1-one] is 2.1-fold higher in IC50: 117 nM for the first, 244 nM for the second. The first is the more potent here.

`Cc1cccc(N2CCN(C(=O)Cn3nc(C(=O)N4CCN5CCCC[C@@H]5C4)c4c3C[C@H]3C[C@@H]43)CC2)c1C` [Example 246, 1-[4-(2,3-dimethylphenyl)piperazin-1-yl]-2-{(3bR,4aR)-3-[(9aR)-octahydro-2H-pyrido[1,2-a]pyrazine-2-carbonyl]-3b,4,4a,5-tetrahydro-1H-cyclopropa[3,4]cyclopenta[1,2-c]pyrazol-1-yl}ethan-1-one] and `Cc1cccc(N2CCN(C(=O)Cn3nc(C(=O)N4CCCC(N5CCCC5=O)C4)c4c3C[C@H]3C[C@@H]43)CC2)c1C` (stereo partly drawn) [Example 225, 1-{1-[(3bR,4aR)-1-{2-[4-(2,3-dimethylphenyl)piperazin-1-yl]-2-oxoethyl}-3b,4,4a,5-tetrahydro-1H-cyclopropa[3,4]cyclopenta[1,2-c]pyrazole-3-carbonyl]piperidin-3-yl}pyrrolidine-2-one] are within 1.5-fold of each other in IC50: 3.27 nM for the first, 3.93 nM for the second.

Going from `Cc1cccc(N2CCN(C(=O)Cn3nc(C(=O)N4C[C@@H](C)O[C@@H](C)C4)c4c3C[C@@H]3C[C@H]43)CC2)c1C` [Example 299, 2-{(3bS,4aS)-3-[(2R,6S)-2,6-dimethylmorpholine-4-carbonyl]-3b,4,4a,5-tetrahydro-1H-cyclopropa[3,4]cyclopenta[1,2-c]pyrazol-1-yl}-1-[4-(2,3-dimethylphenyl)piperazin-1-yl]ethan-1-one] to `CN[C@H]1CCCN(C(=O)c2nn(CC(=O)N3CCN(c4cccc(C)c4C)CC3)c3c2[C@@H]2C[C@@H]2C3)C1` [Example 241, 1-[4-(2,3-dimethylphenyl)piperazin-1-yl]-2-{(3bR,4aR)-3-[(3S)-3-(methylamino)piperidine-1-carbonyl]-3b,4,4a,5-tetrahydro-1H-cyclopropa[3,4]cyclopenta[1,2-c]pyrazol-1-yl}ethan-1-one], the IC50 rises from 15.1 nM to 164 nM (11-fold).

Compared with `Cc1cccc(N2CCN(C(=O)Cn3nc(C(=O)N4CCC5C(C4)NC(=O)N5C)c4c3C[C@H]3C[C@@H]43)CC2)c1C` (stereo partly drawn) [Example 273, 5-[(3bR,4aR)-1-{2-[4-(2,3-dimethylphenyl)piperazin-1-yl]-2-oxoethyl}-3b,4,4a,5-tetrahydro-1H-cyclopropa[3,4]cyclopenta[1,2-c]pyrazole-3-carbonyl]-1-methyloctahydro-2H-imidazo[4,5-c]pyridin-2-one], `Cc1cccc(N2CCN(C(=O)Cn3nc(C(=O)N4CCC(OCCO)CC4)c4c3C[C@H]3C[C@@H]43)CC2)c1C` [Example 277, 1-[4-(2,3-dimethylphenyl)piperazin-1-yl]-2-{(3bR,4aR)-3-[4-(2-hydroxyethoxy)piperidine-1-carbonyl]-3b,4,4a,5-tetrahydro-1H-cyclopropa[3,4]cyclopenta[1,2-c]pyrazol-1-yl}ethan-1-one] is lower in IC50: 38.7 nM for the first, under 0.51 nM for the second. The second is the more potent here.

Going from `Cc1cccc(N2CCN(C(=O)Cn3nc(C(=O)N4CCC5(CCCN5)CC4)c4c3CCC4)CC2)c1C` [Example 177, 2-[3-(1,8-diazaspiro[4.5]decane-8-carbonyl)-5,6-dihydrocyclopenta[c]pyrazol-1(4H)-yl]-1-[4-(2,3-dimethylphenyl)piperazin-1-yl]ethan-1-one] to `Cc1cccc(N2CCN(C(=O)Cn3nc(C(=O)N4CCC5(CC4)COC(CO)C5)c4c3C[C@H]3C[C@@H]43)CC2)c1C` (stereo partly drawn) [Example 268, 1-[4-(2,3-dimethylphenyl)piperazin-1-yl]-2-{(3bR,4aR)-3-[3-(hydroxymethyl)-2-oxa-8-azaspiro[4.5]decane-8-carbonyl]-3b,4,4a,5-tetrahydro-1H-cyclopropa[3,4]cyclopenta[1,2-c]pyrazol-1-yl}ethan-1-one], the IC50 falls from 405 nM to 1.25 nM (320-fold). The second is the more potent here.

First: O=C(Cn1nc(C(=O)N2CC[C@H](O)[C@@H](F)C2)c2c1CCC2)N1CCN(C2CCCc3ccccc32)CC1 (stereo partly drawn) [Example 433, 2-(3-((3S,4S)-3-fluoro-4-hydroxypiperidine-1-carbonyl)-5,6-dihydrocyclopenta[c]pyrazol-1(4H)-yl)-1-(4-(1,2,3,4-tetrahydronaphthalen-1-yl)piperazin-1-yl)ethanone]
Second: C[C@@H]1CN(C(=O)c2nn(CC(=O)N3CCN(c4ccc5c(c4)CCCO5)CC3)c3c2CCC3)C[C@H](C)O1 [Example 73, 1-[4-(3,4-dihydro-2H-1-benzopyran-6-yl)piperazin-1-yl]-2-{3-[(2R,6S)-2,6-dimethylmorpholine-4-carbonyl]-5,6-dihydrocyclopenta[c]pyrazol-1(4H)-yl}ethan-1-one]
The IC50 of the first is 2.8-fold higher: 494 nM for the first, 176 nM for the second.
